As a reminder, the IC50 is the midpoint of a concentration-inhibition curve. A lower IC50 goes with greater potency in that assay. One may read the ED50 as the dose at which the effect has come halfway, by size or by number of responders. Read a high ED50 as a need for a large dose. One may read the inhibition in vivo as how much of the control response was suppressed. Low values mean a weak effect, high ones a strong effect. Usually Papp B→A stands for the apparent permeability from the basolateral to the apical side of a cell layer. A word on the half-life: it is how long it takes for the measured level to halve. The low end stands for rapid decline, the high end for slow decline.

Data set [1] can be described thus: Inhibition of gamma secretase-mediated amyloid beta (1 to 40) production.
Data set [2] deals with Gamma-secretase. As to the kind of experiment: Inhibition of gamma secretase-mediated total amyloid beta production in human H4 cells. The class given is cell-based.
The nature of data set [3]: Inhibition of gamma secretase-mediated amyloid beta (1 to 40) production by cell-free assay.
A short description of data set [4]: Inhibition of gamma secretase-mediated amyloid beta (1 to 40) production by cell-based assay.
Data set [5] deals with Gamma-secretase. The data set is described as follows: Inhibition of human gamma secretase-mediated total amyloid beta production expressed in CHO-N9 cells. The class given is cell-based.
The target in data set [6] is Gamma-secretase. The data set is described as follows: Inhibition of gamma secretase-mediated amyloid beta (1 to 40) production in human SH-SY5Y cells. The class given is cell-based.
Data set [7] concerns Mus musculus. The data set is described as follows: Inhibition of gamma secretase-mediated amyloid beta (1 to 40) production in brain of po dosed transgenic 2576 mouse by sandwich ELISA. The class given is functional. On the technique in general: ELISA stands for enzyme-linked immunosorbent assay.
In data set [8] the test system is Mus musculus. The data set is described as follows: Inhibition of gamma secretase-mediated amyloid beta (1 to 40) production in brain of transgenic 2576 mouse at 200 umol/kg, po. The class given is functional.
In data set [9] the test system is Mus musculus. The data set is described as follows: Inhibition of gamma secretase-mediated total amyloid beta production in brain of po dosed mouse. The class given is functional.
The target in data set [10] is Gamma-secretase. As to the kind of experiment: Inhibition of gamma secretase-mediated amyloid beta (1 to 40) production in human H4 cells. The class given is cell-based.
Data set [11] in a line: Clearance in mouse microsomes assessed per gram of protein. The class given is ADME, Liver, Microsome.
Data set [12] deals with Gamma-secretase. As to the kind of experiment: Inhibition of human gamma secretase-mediated total amyloid beta production expressed in HEK cells. The settings on record: hek293. The class given is cell-based.
A short description of data set [13]: Apparent permeability from basolateral to apical side of human Caco-2 cells. The class given is ADME, cell-based. In general terms: Passage across Caco-2 layers is used to estimate intestinal permeability.
The subject of data set [14] is Mus musculus. The data set is described as follows: Inhibition of gamma secretase-mediated amyloid beta (1 to 42) production in transgenic 2576 mouse brain at 100 mg/kg, po. The class given is functional.
The nature of data set [15]: Half life in rat microsomes. The class given is ADME, Microsome.
For data set [16], the system named is Mus musculus. The data set is described as follows: Inhibition of gamma secretase-mediated amyloid beta (1 to 40) production in transgenic 2576 mouse brain at 100 mg/kg, po. The class given is functional.
Data set [17] relates to Mus musculus. The data set is described as follows: Inhibition of gamma secretase-mediated amyloid beta production in transgenic CRND8 mouse plasma at 10 mg/kg, po. The class given is functional.
The nature of data set [18]: Inhibition of gamma secretase-mediated total amyloid beta production.
Data set [19] deals with Mus musculus. As to the kind of experiment: Inhibition of gamma secretase-mediated amyloid beta (1 to 40) production in brain of po dosed human APP transgenic YAC mouse. The class given is functional.
Data set [20] can be described thus: Metabolic stability in rat liver microsomes assessed as compound remaining after 20 mins. Particulars: read-out: Stability. The class given is ADME, Microsome.

Consider `O=S(=O)(c1ccc(Cl)cc1)C1(c2cc(F)ccc2F)CCCCC1`, for which the IC50 in data set [1] was 3 nM.

In data set [2], `CCOC(=O)[C@H](O)[C@H](CC1CCCCC1)NC(=O)[C@H](CC(C)C)NC(=O)/C=C/c1ccccc1` gave an IC50 of 5000 nM.

On to `C[C@H](CC(F)(F)F)[C@@H](CO)NS(=O)(=O)c1ccc(Cl)s1`, for which the IC50 in data set [1] came to 100 nM.

`CC[C@H](C)[C@@H](NC(=O)[C@H](NC(=O)[C@H](NC(=O)C(C)(C)NC(=O)CNC(=O)[C@H](NC(=O)OC(C)(C)C)C(C)C)C(C)C)C(C)C)C(=O)NC(C)(C)C(=O)N[C@H](Cc1ccc(C(=O)c2ccccc2)cc1)C(=O)N[C@@H](C(=O)NC(C)(C)C(=O)OC)C(C)C`: the IC50 is 10 nM in data set [3] and 70 nM in [4].

With `CCC[C@H](C(=O)NO)[C@@H](CC(C)C)C(=O)N[C@H]1CCCCN(Cc2cccc(Oc3ccccc3)c2)C1=O`, the IC50 in data set [5] is 200 nM.

As to `CN1C(=O)C(NC(=O)CCc2ccc(Cl)cc2Cl)N=C(c2ccc(C(N)=O)cc2)c2ccccc21` (centres undefined), the half-inhibitory concentration (IC50) in data set [1] is 33 nM.

In data set [6], `O=S(=O)(N[C@H]1[C@@H]2CC[C@H]1Cc1ccccc1C2)c1ccc(Cl)cc1` displayed an IC50 of 467 nM.

Take `C[C@H](c1ccc(F)cc1CCCC(=O)O)N(c1cc(F)ccc1F)S(=O)(=O)c1ccc(Cl)cc1`: in [7], it took a dose of 18 mg/kg to reach the 50% effect level (ED50).

For the molecule `O=S(=O)(N[C@H]1[C@@H]2CC[C@H]1Cc1ccccc1C2)c1ccc(Cl)s1`, the IC50 in [6] worked out at 62 nM.

Molecule `CC[C@H](C)[C@@H](NC(=O)[C@H](NC(=O)[C@H](NC(=O)C(C)(C)NC(=O)CNC(=O)[C@H](NC(=O)OC(C)(C)C)C(C)C)C(C)C)C(C)C)C(=O)NC(C)(C)C(=O)N[C@@H](C(=O)N[C@@H](C(=O)NC(C)(C)C(=O)OC)C(C)C)[C@@H](C)OCc1ccccc1` registered an IC50 in data set [3] of 100 nM.

With `C[C@H](NC(=O)Cc1cc(F)cc(F)c1)C(=O)NC1C(=O)N(C)N(C)C(=O)c2ccccc21` (some centres undefined), the inhibition in vivo at 200 µmol/kg in [8] turned out to be 43%.

`C[C@H](NC(=O)[C@@H](O)c1cc(F)cc(F)c1)C(=O)N[C@@H]1C(=O)N(C)c2ccccc2-c2ccccc21`: the midpoint of inhibition in [1], the IC50, lay at 0.03 nM. In data set [9], this molecule registered a median effective dose (ED50) of under 1 mg/kg.

In data set [10], `CC(C)C[C@H](NC(=O)Cc1ccc2ccccc2c1)C(=O)N[C@@H](CC1CCCCC1)[C@H](O)Cc1ccccc1C(=O)NC(C)(C)C` returned an IC50 of 4700 nM.

Molecule `CC(C)C[C@H](C(N)=O)N(Cc1ccc2c(c1)OCO2)S(=O)(=O)c1ccc(Cl)cc1` gave a CL in [11] of 282 µL/min/g.

Consider `O=S(=O)(Cc1cc(F)ccc1F)c1ccc(Cl)cc1`, for which the IC50 in data set [1] stood at 4410 nM.

For the molecule `CCOC(=O)[C@H](C)Nc1ccc(Cl)c(Cl)c1`, it took 900 nM to reach half-maximal inhibition in [12] (IC50).

As for `CCC(CC)[C@@H](CO)NS(=O)(=O)c1ccc(Cl)s1` [GSI-136], in data set [13], the Papp B→A was found to be 42 ×10⁻⁶ cm/s. In addition, the inhibition in vivo at 100 mg/kg in data set [14] and in data set [16] was 25% in each case. The half-life in data set [15] was 2 min.

In the case of `O=C(OC1([C@H]2CCC[C@@H](c3cc(F)cc(F)c3)N2S(=O)(=O)c2ccc(Cl)cc2)CC1)N1CCN(CCO)CC1`, in [17], the inhibition in vivo at 10 mg/kg is over 75%.

On to `O=C(NC1CC1)c1ccc(CN(C2CC(C(F)(F)F)CCNC2=O)S(=O)(=O)c2ccc(Cl)cc2)cc1` (centres undefined), for which, in data set [1], the IC50 stood at 20 nM.

Molecule `CC(C)C(c1cc(F)ccc1F)S(=O)(=O)c1ccc(Cl)cc1` (centres undefined) returned an IC50 in data set [1] of 70 nM.

Take `CC[C@H](C)[C@H](NC(=O)N(Cc1ccccc1)C[C@@H](O)[C@H](Cc1ccccc1)NC(=O)[C@@H](NC(=O)OC(C)(C)C)C(C)C)C(=O)N[C@H](C(=O)OC)C(C)C`: the IC50 in data set [18] is 70 nM.

As to `CC[C@@H]1C[C@H]2C[C@@](c3cc(F)ccc3F)(S(=O)(=O)c3ccc(Cl)cc3)CC[C@H]2NS1(=O)=O`, the 50% effective dose (ED50) in data set [19] was determined as 2.8 mg/kg. This molecule also gave an IC50 in data set [1] of 0.06 nM. In [20], the remaining at 20 min turned out to be 93%.

For the origin of these results see ChEMBL document CHEMBL1156244, “Recent advances in the identification of gamma-secretase inhibitors to clinically test the Abeta oligomer hypothesis of Alzheimer's disease” (J Med Chem, 2009).
